Experimental data published in PubChem BioAssay AID1259407 (Chemical Carcinogenesis Research Information System (CCRIS), 2018).
Active and inactive are the calls of the source. The rule behind the calls is not given here.

System: CCRIS mutagenicity, Ames/micronucleus/aberration tests
Assay: CCRIS mutagenicity studies
[1] = Test System: AMES SALMONELLA TYPHIMURIUM, Strain/Indicator: TA98, Metabolic Activation: NONE, Method: STANDARD PLATE
[2] = Test System: AMES SALMONELLA TYPHIMURIUM, Strain/Indicator: TA100, Metabolic Activation: NONE, Method: STANDARD PLATE
[3] = Test System: AMES SALMONELLA TYPHIMURIUM, Strain/Indicator: TA98, Metabolic Activation: RAT, LIVER, S-9, AROCLOR 1254, Method: STANDARD PLATE
[4] = Test System: AMES SALMONELLA TYPHIMURIUM, Strain/Indicator: TA100, Metabolic Activation: RAT, LIVER, S-9, AROCLOR 1254, Method: STANDARD PLATE
[5] = Test System: AMES SALMONELLA TYPHIMURIUM, Strain/Indicator: TA1535, Metabolic Activation: NONE, Method: STANDARD PLATE
[6] = Test System: AMES SALMONELLA TYPHIMURIUM, Strain/Indicator: TA1535, Metabolic Activation: RAT, LIVER, S-9, AROCLOR 1254, Method: STANDARD PLATE
[7] = Test System: AMES SALMONELLA TYPHIMURIUM, Strain/Indicator: TA1537, Metabolic Activation: NONE, Method: STANDARD PLATE
[8] = Test System: AMES SALMONELLA TYPHIMURIUM, Strain/Indicator: TA1537, Metabolic Activation: RAT, LIVER, S-9, AROCLOR 1254, Method: STANDARD PLATE
[9] = Test System: AMES SALMONELLA TYPHIMURIUM, Strain/Indicator: TA1538, Metabolic Activation: NONE, Method: STANDARD PLATE
[10] = Test System: AMES SALMONELLA TYPHIMURIUM, Strain/Indicator: TA1538, Metabolic Activation: RAT, LIVER, S-9, AROCLOR 1254, Method: STANDARD PLATE
[11] = Test System: AMES SALMONELLA TYPHIMURIUM, Strain/Indicator: TA98, Metabolic Activation: NONE, Method: PREINCUBATION
[12] = Test System: AMES SALMONELLA TYPHIMURIUM, Strain/Indicator: TA100, Metabolic Activation: NONE, Method: PREINCUBATION
[13] = Test System: AMES SALMONELLA TYPHIMURIUM, Strain/Indicator: TA1535, Metabolic Activation: NONE, Method: PREINCUBATION
[14] = Test System: AMES SALMONELLA TYPHIMURIUM, Strain/Indicator: TA1537, Metabolic Activation: NONE, Method: PREINCUBATION

Measured: mutagenic call

C[C@H]1CC[C@@H]2[C@@H](C)[C@H]3[C@H](C[C@H]4[C@@H]5CC=C6C[C@@H](O[C@@H]7O[C@H](CO)[C@@H](O[C@@H]8O[C@@H](C)[C@H](O)[C@@H](O)[C@H]8O)[C@H](O)[C@H]7O[C@@H]7O[C@@H](C)[C@H](O)[C@@H](O)[C@H]7O)CC[C@]6(C)[C@H]5CC[C@]34C)N2C1
inactive: [1] inactive; negative | Test System: AMES SALMONELLA TYPHIMURIUM, Strain/Indicator: TA98, Metabolic Activation: S-9, Method: STANDARD PLATE inactive; negative | [2] inactive; negative | Test System: AMES SALMONELLA TYPHIMURIUM, Strain/Indicator: TA100, Metabolic Activation: S-9, Method: STANDARD PLATE inactive; negative

O=C(Nc1ccc2c(O)c(N=Nc3ccc(N=Nc4ccc(S(=O)(=O)O)cc4)cc3)c(S(=O)(=O)O)cc2c1)c1ccccc1
inactive: [1] inactive; negative | [3] inactive; negative | [2] inactive; negative | [4] inactive; negative | [5] inactive; negative | [6] inactive; negative | [7] inactive; negative | [8] inactive; negative | [9] inactive; negative | [10] inactive; negative

C=CCc1cc(OC)c(OC)c(OC)c1
active: Test System: UDS RAT HEPATOCYTES, Strain/Indicator: THY INCORP, Metabolic Activation: NONE, Method: LIQUID SCINTILLATION COUNTING active; positive

CS
inactive: [11] inactive; negative | Test System: AMES SALMONELLA TYPHIMURIUM, Strain/Indicator: TA98, Metabolic Activation: RAT, LIVER, S-9, SODIUM PHENOBARBITAL AND 5,6-BENZOFLAVONE, Method: PREINCUBATION inactive; negative | [12] inactive; negative | Test System: AMES SALMONELLA TYPHIMURIUM, Strain/Indicator: TA100, Metabolic Activation: RAT, LIVER, S-9, SODIUM PHENOBARBITAL AND 5,6-BENZOFLAVONE, Method: PREINCUBATION inactive; negative | Test System: AMES SALMONELLA TYPHIMURIUM, Strain/Indicator: TA102, Metabolic Activation: NONE, Method: PREINCUBATION inactive; negative | Test System: AMES SALMONELLA TYPHIMURIUM, Strain/Indicator: TA102, Metabolic Activation: RAT, LIVER, S-9, SODIUM PHENOBARBITAL AND 5,6-BENZOFLAVONE, Method: PREINCUBATION inactive; negative | Test System: AMES SALMONELLA TYPHIMURIUM, Strain/Indicator: TA104, Metabolic Activation: NONE, Method: PREINCUBATION inactive; negative | Test System: AMES SALMONELLA TYPHIMURIUM, Strain/Indicator: TA104, Metabolic Activation: RAT, LIVER, S-9, SODIUM PHENOBARBITAL AND 5,6-BENZOFLAVONE, Method: PREINCUBATION inactive; negative | [13] inactive; negative | Test System: AMES SALMONELLA TYPHIMURIUM, Strain/Indicator: TA1535, Metabolic Activation: RAT, LIVER, S-9, SODIUM PHENOBARBITAL AND 5,6-BENZOFLAVONE, Method: PREINCUBATION inactive; negative | [14] inactive; negative | Test System: AMES SALMONELLA TYPHIMURIUM, Strain/Indicator: TA1537, Metabolic Activation: RAT, LIVER, S-9, SODIUM PHENOBARBITAL AND 5,6-BENZOFLAVONE, Method: PREINCUBATION inactive; negative | Test System: E. COLI, Strain/Indicator: WP2UVRA/PKM101, Metabolic Activation: NONE, Method: PREINCUBATION inactive; negative | Test System: E. COLI, Strain/Indicator: WP2UVRA/PKM101, Metabolic Activation: RAT, LIVER, S-9, SODIUM PHENOBARBITAL AND 5,6-BENZOFLAVONE, Method: PREINCUBATION inactive; negative | Test System: E. COLI, Strain/Indicator: WP2UVRA, Metabolic Activation: NONE, Method: PREINCUBATION inactive; negative | Test System: E. COLI, Strain/Indicator: WP2UVRA, Metabolic Activation: RAT, LIVER, S-9, SODIUM PHENOBARBITAL AND 5,6-BENZOFLAVONE, Method: PREINCUBATION inactive; negative

CC(CCN(C)C)N(C)C (centres undefined)
inactive: Test System: AMES SALMONELLA TYPHIMURIUM, Strain/Indicator: TA98, Metabolic Activation: HAMSTER, LIVER, S-9, AROCLOR 1254 (10%), Method: PREINCUBATION inactive; negative | [11] inactive; negative | Test System: AMES SALMONELLA TYPHIMURIUM, Strain/Indicator: TA98, Metabolic Activation: RAT, LIVER, S-9, AROCLOR 1254 (10%), Method: PREINCUBATION inactive; negative | Test System: AMES SALMONELLA TYPHIMURIUM, Strain/Indicator: TA98, Metabolic Activation: RAT, LIVER, S-9, PCB, Method: PREINCUBATION inactive; negative | Test System: AMES SALMONELLA TYPHIMURIUM, Strain/Indicator: TA100, Metabolic Activation: HAMSTER, LIVER, S-9, AROCLOR 1254 (10%), Method: PREINCUBATION inactive; negative | [12] inactive; negative | Test System: AMES SALMONELLA TYPHIMURIUM, Strain/Indicator: TA100, Metabolic Activation: RAT, LIVER, S-9, AROCLOR 1254 (10%), Method: PREINCUBATION inactive; negative | Test System: AMES SALMONELLA TYPHIMURIUM, Strain/Indicator: TA100, Metabolic Activation: RAT, LIVER, S-9, PCB, Method: PREINCUBATION inactive; negative | Test System: AMES SALMONELLA TYPHIMURIUM, Strain/Indicator: TA1535, Metabolic Activation: HAMSTER, LIVER, S-9, AROCLOR 1254 (10%), Method: PREINCUBATION inactive; negative | [13] inactive; negative | Test System: AMES SALMONELLA TYPHIMURIUM, Strain/Indicator: TA1535, Metabolic Activation: RAT, LIVER, S-9, AROCLOR 1254 (10%), Method: PREINCUBATION inactive; negative | Test System: AMES SALMONELLA TYPHIMURIUM, Strain/Indicator: TA1537, Metabolic Activation: HAMSTER, LIVER, S-9, AROCLOR 1254 (10%), Method: PREINCUBATION inactive; negative | [14] inactive; negative | Test System: AMES SALMONELLA TYPHIMURIUM, Strain/Indicator: TA1537, Metabolic Activation: RAT, LIVER, S-9, AROCLOR 1254 (10%), Method: PREINCUBATION inactive; negative

CO/N=C(\C(=O)N[C@@H]1C(=O)N2C(C(=O)O)=C(CSC(=O)c3ccco3)CS[C@H]12)c1csc(N)n1
inactive: [1] inactive; negative | [3] inactive; negative | [2] inactive; negative | [4] inactive; negative | [5] inactive; negative | [6] inactive; negative | [7] inactive; negative | [8] inactive; negative | [9] inactive; negative | [10] inactive; negative | Test System: CHINESE HAMSTER V-79, Strain/Indicator: V-79 (HPRT)/6-THIOGUANINE, Metabolic Activation: NONE inactive; negative | Test System: CHINESE HAMSTER V-79, Strain/Indicator: V-79 (HPRT)/6-THIOGUANINE, Metabolic Activation: RAT, LIVER, S-9, AROCLOR 1254 inactive; negative | Test System: UDS RAT HEPATOCYTES, Strain/Indicator: THY INCORP, Metabolic Activation: NONE, Method: IN VIVO-IN VITRO inactive; negative

[O]c1nccc(=O)[nH]1
active: [2] active; positive
